Test results reported in BindingDB's records for doi:10.1021/jm00105a069 (Schering-Plough, 1991).

Test: Concentration required to cause 50% inhibition of platelet activating factor (PAF)-induced platelet aggregation of human platelet rich plasma when challenged with 25 nM PAF.

| IC50 [µM] | SMILES |
| --- | --- |
| > 50 | CN1CCC(=C2c3ccccc3CCc3cccnc32)CC1 |
| 1.5 | COc1cc([C@@H]2CC[C@@H](c3cc(OC)c(OC)c(OC)c3)O2)cc(OC)c1OC |
| > 50 | CC(C)(C)C(=O)N1CCC(=C2c3ccc(Cl)cc3CCc3cccnc32)CC1 |
| 0.81 | CC(=O)N1CCC(=C2c3ccc(Br)cc3CCc3cccnc32)CC1 |
| 3.4 | COc1ccc2c(c1)CCc1cccnc1C2=C1CCN(C(C)=O)CC1 |
| 1 | CC(=O)N1CCC(=C2c3cc(F)c(F)cc3CCc3cccnc32)CC1 |
| 0.82 | CC(=O)N1CCC(=C2c3cc(F)ccc3CCc3cccnc32)CC1 |
| 1.8 | CC(=O)N1CCC(=C2c3cc(Cl)c(Cl)cc3CCc3cccnc32)CC1 |
| 3.4 | CC(=O)N1CCC(=C2c3cc(Cl)ccc3CCc3cccnc32)CC1 |
| 2.4 | CCC(=O)N1CCC(=C2c3ccc(Cl)cc3CCc3cccnc32)CC1 |
| 0.67 | CC(=O)N1CCC(=C2c3ccc(F)cc3CCc3cccnc32)CC1 |
| > 50 | CC(=O)N(C)CC/C=C1\c2ccc(Cl)cc2CCc2cccnc21 |
| 13 | O=CN1CCC(=C2c3ccc(Cl)cc3CCc3cccnc32)CC1 |
| 33 | CCCC(=O)N1CCC(=C2c3ccc(Cl)cc3CCc3cccnc32)CC1 |
| > 50 | O=C(c1ccccc1)N1CCC(=C2c3ccc(Cl)cc3CCc3cccnc32)CC1 |
| 1.4 | CC(=O)N1CCC(=C2c3ccccc3CCc3cccnc32)CC1 |
| 28 | CC(=O)N1CCC(=C(c2ccc(Cl)cc2)c2ccccn2)CC1 |
| 1 | CC(=O)N1CCC(=C2c3ccc(C)cc3CCc3cccnc32)CC1 |
| > 50 | CC(=O)C1CCC(=C2c3ccc(Cl)cc3CCc3cccnc32)CC1 (centres undefined) |
| 0.61 | CC(=O)N1CCC(=C2c3ccc(Cl)cc3CCc3cccnc32)CC1 |
| > 50 | CC(=O)N(C)CC/C=C1/c2ccc(Cl)cc2CCc2cccnc21 |
| 8.7 | CC(=O)N1CCC(=C2c3ccc(O)cc3CCc3cccnc32)CC1 |
| 41 | CC(=O)N1CCC(=C2c3ccccc3CCc3ccccc32)CC1 |
| > 50 | CN(C)CCC(c1ccc(Cl)cc1)c1ccccn1 (centres undefined) [clorfeniramina] |
